Data set [1] is described as follows: pKa of the ligands by 1H NMR titration. In kind it is physicochemical. As to conditions: 0.20 M KNO3 with 10% (v/v) D2O, I = 0.20 M KNO3, 25.0 °C, read-out: pKa (OH). The protocol: (§1) Physico-chemical properties such as aqueous solubility, lipophilicity, and the actual protonation state at a given pH are known to influence the pharmacokinetic behavior of a drug.
Bruker Avance III HD Ascend 500 Plus instrument (Billerica, MA, USA) was used for NMR studies. ^1H NMR spectroscopic measurements were carried out with a WATERGATE water suppression pulse scheme in the presence of 10% (v/v) D2O in most cases. DSS internal standard was added to samples to obtain reference peaks. ^1H NMR titrations were carried out in the presence of 0.20 M KNO3. The computer program HypSpec[64] was used to obtain equilibrium constants.

Data set [2] concerns A431-B1. More on the design: method as in earlier work. As to conditions: monoculture, ref SI3, cited from earlier work.
In data set [3] the test system is MES-SA. As to conditions: monoculture, PrestoBlue; ref SI3; cited from earlier work.
Data set [4] is described as follows: pKa of the ligands by UV–vis titration. Format: physicochemical. The settings on record: for pKa: 0.20 M KNO3, UV–vis, I = 0.20 M KNO3, 10 equiv. EDTA. The protocol:
as §1
An Agilent Cary 8454 diode array spectrophotometer was utilized to obtain UV–vis spectra in the wavelength range 190–1100 nm. The path length (l) was 1 or 2 cm in most cases (the actual l is always indicated in the legends of the figures). The concentrations of the ligands and complexes were between 36 and 100 μM. The ligands were titrated in the presence of 10 equiv of EDTA. Individual samples contained 0–37 μM HSA, 0–206 μM MIM, 0–759 μM AHA, or 0–733 μM FHA. Spectra were always background and baseline corrected. The computer program HypSpec[64] was used to obtain stability constants.

A short description of data set [5]: pKa of in situ prepared complexes by pH-potentiometry. The settings on record: I = 0.20 M KNO3. Format: physicochemical. The source says: The results, shown in Table 2, indicate good agreement between the data obtained by the different methods. It should be noted that these processes show overlap in all cases, and therefore, the assignment of the pKa values to the given moieties cannot be made reliably. However, by comparing the spectral changes with those observed for HQ and other simple derivatives,[25] it can be concluded that the lower pKa likely belongs to the deprotonation of the aqua coligand.
The pH-potentiometric measurements were carried out at 25.0 ± 0.1 °C in water in the pH range between 2.0 and 11.5 and at a constant ionic strength of 0.20 M KNO3. The titrations were performed in a carbonate-free KOH solution (0.20 M). The exact concentrations of the HNO3 and KOH solutions were determined by pH-potentiometric titrations. An Orion 710A pH-meter equipped with a Metrohm combined electrode (type 6.0234.100) and a Metrohm 665 Dosimat buret were used for this purpose. […] The average water ionization constant, pKw, was determined as 13.76 ± 0.01, which is in good agreement with the literature data.[67] The initial volume of the samples was 10.0 mL. […] Samples were degassed by bubbling purified argon through them for about 10 min prior to the measurements, and the inert gas was also passed over the solutions during the titrations. The computer program Hyperquad2013[64] was utilized to establish the stoichiometry of the species and to calculate the equilibrium constants.

A short description of data set [6]: Ligand displacement with 2,2′-bipyridine, conditional formation constant. In kind it is physicochemical. The settings on record: pH 7.4; bpy competitor; UV–vis. The source says: These pKa (H2O) values are lower than those of the complexes formed with the corresponding amino acid hybrids (HQCl-D-Pro, HQCl-D-hPro, Figure S23). Thus, the predominant complex at pH 7.4 is [M(arene)(HL)(H2O)]^2+ in all cases, in which the bidentate ligand coordinates via the (N,O^–) donor set and the pyridinium or pyrrolidinium nitrogens are protonated just like in the isolated complexes (Chart 3). Based on the unchanged spectra (vide supra), these types of complexes show no dissociation at pH = 2, indicating their high stability and hindering the direct determination of the formation constants. Therefore, a ligand displacement experiment was performed using UV–vis spectrophotometry with 2,2′-bipyridine (bpy) as a competitor to determine conditional formation constants at pH = 7.4 (Figure S25). […] Nevertheless, these values indicate a high stability of the complexes in solution, and <1% of dissociation is estimated at 1 μM concentration at pH = 7.4. The ligand displacement measurement could not be applied to the RuCym complexes due to the release of the p-cymene ring followed by the formation of the mixed ligand complex with bpy and oxidation of the metal center (Figure S26), similarly to analogue complexes.[14],[26],[27]

Data set [7] in a line: H2O/Cl– coligand exchange by UV–vis titration with chloride ions. Format: physicochemical. The settings on record: RhCp* complexes titrated at pH 7.4. The protocol:
When the isolated complexes (1–4) are dissolved in water, their chlorido coligand can be replaced by water, or vice versa in the aqua complexes [M(arene)(HL)(H2O)]^2+, the H2O → Cl^– exchange process can take place in the presence of chloride ions. The chloride ion affinity of the complexes was also investigated by UV–vis spectrophotometry. RhCp* and RuCym complexes were titrated with chloride ions at pH 7.4 and 6.0, respectively. For this experiment, pH values were chosen at which the formation of the mixed hydroxido species is negligible. A representative spectrum series for complex (4) is shown in Figure S27, and the calculated conditional exchange constants (logK’ (H2O/Cl^–)) are given in Table 2 and in Figure S23. […] The complexes of the amino acid hybrids HQCl-D-Pro and HQCl-D-hPro have lower logK’ (H2O/Cl^–) constants most likely due to the repulsive effect of the nearby COO^– group.[26]

For `Oc1c(CN2CCCCC2)cc(Cl)c2cccnc12` [HQCl-pip, 5-chloro-7-(piperidin-1-ylmethyl)quinolin-8-ol], the pKa in data set [1] stood at 7.43 ± 0.02; in data set [4] (read-out: pKa (Npyr/pipH+)), 11.3 ± 0.12; in data set [4] (read-out: pKa (NqH+)), 2.09 ± 0.05; in data set [4] (read-out: pKa (OH)), 7.42 ± 0.03. In addition, the IC50 (in general, the midpoint of a concentration-inhibition curve) is 1690 ± 270 nM in data set [2] (72 h, PrestoBlue) and 2490 ± 390 nM in data set [3]. The “SR (A431 / A431-B1)” value in data set [2] is recorded as 3.96. In addition, the “fraction of HL” value in data set [4] (pH 7.4, based on the pKa values) came out at 42%.

[RhCp*(HQCl-Pip)Cl]Cl [(3)]: in data set [5], the “pKa (H2O)” value is 9.39 ± 0.07 and the “pKa (Npyr/pipH+)” value came to 10.41 ± 0.10. Moreover, in data set [6], the “logK’ [M(arene)L]7.4 conditional formation constant” value stood at 11.89 ± 0.03. Also, the “logK’ (H2O/Cl–)” value in data set [7] is on record as 2.21 ± 0.03.

The values above are taken from PMC11653257, “Organometallic Half-Sandwich Complexes of 8-Hydroxyquinoline-Derived Mannich Bases with Enhanced Solubility: Targeting Multidrug Resistant Cancer” (Inorganic Chemistry, 2024).
